27 molecules from ChEMBL document CHEMBL1201862, “PubChem BioAssay data set” (2004) can be followed below.

Test systems include KM-20L2; SNB-78; RXF 631; M19-MEL; XF498; DMS-114; HOP-18; DLD-1; DMS-273.
Holding throughout (experiment): inhibition of tumour cell growth, NCI panel, 48 h

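A five-concentration, 48-hour dose response in 96-well plates underlies each endpoint, interpolated linearly between surrounding concentrations. GI50 marks 50% less growth.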 Activity calls are given as the source filed them. Rule as the data show it: active = GI50 up to about 1.1 µM and inactive = higher.

In the case of `O=C1c2ccccc2C(=O)c2c(NCCCNCCO)ccc(NCCCNCCO)c21`, the GI50 is 5.51 µM (inactive) with KM-20L2; 8.32 µM (inactive) in the experiment with SNB-78; 17.8 µM (inactive) with RXF 631; 4.93 µM (inactive) with M19-MEL; 4.67 µM (inactive) in the experiment with XF498; 6.01 µM (inactive) in the experiment on DMS-114. The GI50 with HOP-18 was 5.01 µM (inactive).
As to `COc1cc2cc3c4c(cc(OC)c(OC)c4c2cc1OC)CCN3C(=O)N(C)C`, the GI50 was 58.2 µM (inactive) with KM-20L2; > 100 µM (inactive) in the experiment with SNB-78; > 100 µM (inactive) in the experiment with M19-MEL; > 100 µM (inactive) in the experiment with DLD-1; 89.1 µM (inactive) with DMS-273; > 100 µM (inactive) with DMS-114.
Regarding `COC(=O)C(=O)C(C#N)c1ccc(Cl)c(Cl)c1` (centres undefined), the GI50 in the experiment with KM-20L2, with SNB-78, in the experiment with RXF 631, in the experiment on M19-MEL, in the experiment on DLD-1 and in the experiment with XF498 was > 100 µM (inactive) in each case. Moreover, the GI50 in the experiment on DMS-273 was > 100 µM (inactive).
Take `OC1(c2ccccc2)OC(C#Cc2ccccc2)(c2ccccc2)c2ccccc21` (centres undefined): the GI50 was 3.33 µM (inactive) in the experiment on KM-20L2; 6.98 µM (inactive) in the experiment with SNB-78; 3.13 µM (inactive) in the experiment with RXF 631; 3.23 µM (inactive) in the experiment with M19-MEL; 3.06 µM (inactive) in the experiment on DLD-1; 7.26 µM (inactive) with XF498. For the same molecule, the GI50 with DMS-273 is 3.4 µM (inactive); in the experiment with DMS-114, 3.13 µM (inactive).
With `COC(=O)C1=C(CO)C2C=CC1C2` (centres undefined), the GI50 in the experiment on KM-20L2, in the experiment with SNB-78, in the experiment with RXF 631, with M19-MEL, with DLD-1 and in the experiment on XF498 was > 100 µM (inactive) each time. For the same molecule, the GI50 in the experiment on DMS-273 and in the experiment with HOP-18 was > 100 µM (inactive) throughout.
For the molecule `CCOC(=O)c1c2cccccc2n2c(=O)cc(C)nc12`, the GI50 with KM-20L2, with SNB-78 and in the experiment on DMS-273 was > 100 µM (inactive) each time.
On to `c1ccc(C2N=NN(c3ccccc3)C2N2CCCCC2)cc1` (centres undefined), for which the GI50 with KM-20L2 is > 100 µM (inactive); in the experiment on SNB-78, 75 µM (inactive); with M19-MEL it was > 100 µM (inactive); with DLD-1 it was > 100 µM (inactive); in the experiment with XF498 it was 49.5 µM (inactive); in the experiment with DMS-114, > 100 µM (inactive).
As to `Cc1ccc(NC(=O)c2nc(S)nc(N)c2-c2ccccc2C)cc1C`, the GI50 in the experiment with KM-20L2, in the experiment on SNB-78, with M19-MEL, in the experiment with DLD-1, in the experiment on XF498 and in the experiment on DMS-273 was > 100 µM (inactive) each time. The GI50 in the experiment on DMS-114 and in the experiment on HOP-18 was > 100 µM (inactive) in each case.
As to `Nc1nc(N)c(N=O)c(Nc2ccc(I)cc2)n1`, the GI50 with KM-20L2 was 23.2 µM (inactive); in the experiment on SNB-78, 18.2 µM (inactive); with M19-MEL, 29.4 µM (inactive); in the experiment on DLD-1 it was 10 µM (inactive); in the experiment with DMS-273 it was 16.5 µM (inactive); in the experiment with DMS-114, 20.7 µM (inactive).
As to `O=C(CC(=O)c1ccccc1)C(=O)Nc1ccc(Cl)cc1`, the GI50 was > 100 µM (inactive) in the experiment with KM-20L2; > 100 µM (inactive) in the experiment with SNB-78; > 58.9 µM (inactive) in the experiment on DLD-1; > 100 µM (inactive) with XF498; > 56.5 µM (inactive) with DMS-273; > 40.4 µM (inactive) in the experiment with DMS-114. The GI50 in the experiment on HOP-18 was > 100 µM (inactive).
Take `Cn1c(=O)c(C2c3ccccc3Oc3c2c(=O)n(C)c2ccccc32)c(O)c2ccccc21` (centres undefined): the GI50 in the experiment with KM-20L2 was 59 µM (inactive); in the experiment with SNB-78 it was 53.3 µM (inactive); with RXF 631 it was 58.2 µM (inactive); in the experiment with M19-MEL, > 100 µM (inactive); in the experiment on DLD-1, 50.9 µM (inactive); with XF498, 26.9 µM (inactive). In addition, the GI50 in the experiment on DMS-273 is 68.7 µM (inactive); in the experiment on DMS-114, 49.1 µM (inactive); with HOP-18 it was > 100 µM (inactive).
On to `N#CC1([N+](=O)[O-])C=C1c1ccccc1` (centres undefined), for which the GI50 was > 100 µM (inactive) in the experiment with KM-20L2; 81.5 µM (inactive) in the experiment with SNB-78; > 100 µM (inactive) in the experiment with RXF 631; 56.1 µM (inactive) in the experiment on M19-MEL; 8.81 µM (inactive) in the experiment on DLD-1; > 100 µM (inactive) in the experiment with DMS-273. In addition, the GI50 in the experiment on DMS-114 was 48.6 µM (inactive).
On to `CC(C)(C)c1cc(CCC(=O)Nc2ccc(Cl)cc2Cl)nc(N)n1`, for which the GI50 in the experiment on KM-20L2, in the experiment on SNB-78, with RXF 631, with M19-MEL, in the experiment with DLD-1 and in the experiment on DMS-114 was > 100 µM (inactive) in each case. Besides, the GI50 in the experiment with HOP-18 was > 100 µM (inactive).
On to `Cc1ccc(NC(=O)CC2SC(Nc3cccc(Cl)c3C)=NC2=O)cc1` (centres undefined), for which the GI50 in the experiment on KM-20L2 is 70.8 µM (inactive); with SNB-78 it was 60.7 µM (inactive); with RXF 631 it was > 100 µM (inactive); in the experiment on M19-MEL, 71 µM (inactive); in the experiment with DLD-1, 48.8 µM (inactive); in the experiment on XF498, 46.2 µM (inactive). The values for the GI50 in the experiment on DMS-273 and with DMS-114 were > 100 µM (inactive) and 29.9 µM (inactive), respectively.
Turning to `CCCCCCCCCc1cc(=O)c2ccc(OCc3ccccc3)cc2o1`, the GI50 in the experiment on KM-20L2 is > 100 µM (inactive); in the experiment with SNB-78 it was > 100 µM (inactive); with M19-MEL, 69.7 µM (inactive); with DLD-1, > 100 µM (inactive); with XF498 it was > 100 µM (inactive); in the experiment on DMS-273, > 100 µM (inactive). The figures for the GI50 in the experiment on DMS-114 and in the experiment with HOP-18 were 92.9 µM (inactive) and > 100 µM (inactive), respectively.
Turning to `CC1CCCC(C(=O)/C(=C/c2cccc(Cl)c2)C(=O)C(=O)O)C1` (centres undefined), the GI50 is 25.9 µM (inactive) in the experiment on KM-20L2; 55.2 µM (inactive) in the experiment with SNB-78; 18.7 µM (inactive) with M19-MEL; 20 µM (inactive) with DLD-1; 34.8 µM (inactive) in the experiment on DMS-273; 21 µM (inactive) in the experiment on DMS-114. Moreover, in the experiment on HOP-18, the GI50 is 91 µM (inactive).
As to `COc1ccccc1NC(=O)C1=C(C)NC(C)=C(C(=O)Nc2ccccc2OC)C1/C=C/c1ccccc1`, the GI50 in the experiment with KM-20L2 was > 100 µM (inactive); in the experiment on SNB-78 it was 54.8 µM (inactive); with M19-MEL it was > 100 µM (inactive); with DLD-1 it was > 100 µM (inactive); with DMS-273, > 100 µM (inactive); with DMS-114 it was 61.7 µM (inactive). For the same molecule, the GI50 in the experiment on HOP-18 is > 100 µM (inactive).
Consider `Cc1nc(=O)n2c(C)n[nH]c2c1C(=O)Nc1cc(Cl)cc(Cl)c1`, for which the GI50 was 32.4 µM (inactive) in the experiment with SNB-78, 27.3 µM (inactive) in the experiment on M19-MEL and 19.1 µM (inactive) with DLD-1.
`NC(CCSCC(F)(F)F)C(=O)O` (centres undefined): the GI50 with KM-20L2, in the experiment on SNB-78, in the experiment with M19-MEL, with DLD-1, with DMS-273 and in the experiment with DMS-114 was > 100 µM (inactive) each time. In addition, in the experiment with HOP-18, the GI50 was > 100 µM (inactive).
With `O=C(CC(=O)N1N=C(n2ccc3ccccc32)CC1c1ccccc1)Nc1ccc(Cl)cc1` (centres undefined), the GI50 in the experiment with KM-20L2, in the experiment with SNB-78, in the experiment on RXF 631, in the experiment on M19-MEL, with DLD-1 and in the experiment with DMS-273 was > 100 µM (inactive) throughout. For the same molecule, the GI50 with DMS-114 and in the experiment with HOP-18 was > 100 µM (inactive) in each case.
Regarding `COc1cc(C2c3cc4c(cc3[C@@H](N(C)C)[C@H]3COC(=O)C23)OCO4)cc(OC)c1O` (some centres undefined), the GI50 in the experiment on KM-20L2 was 23.4 µM (inactive); in the experiment on RXF 631 it was 42.2 µM (inactive); with DLD-1 it was 41.9 µM (inactive); with XF498 it was 45 µM (inactive); in the experiment on DMS-273 it was 32.5 µM (inactive).
Regarding `CC1CCC23COC(=O)C2C(O)CCC3C1(C)CC(O)c1ccoc1` (centres undefined), the GI50 in the experiment on KM-20L2, in the experiment with SNB-78, in the experiment on M19-MEL, in the experiment on DLD-1, with XF498 and in the experiment with DMS-114 was > 100 µM (inactive) throughout. The GI50 in the experiment with HOP-18 is > 100 µM (inactive).
For the molecule `C[C@]12CCCC(=O)C1(O)C[C@H](C(=O)O)CC2` (some centres undefined), the GI50 in the experiment on KM-20L2, in the experiment with RXF 631, in the experiment with M19-MEL, in the experiment with DLD-1, in the experiment on XF498 and in the experiment with DMS-273 was > 100 µM (inactive) throughout. Also, the GI50 in the experiment on DMS-114 and in the experiment with HOP-18 was > 100 µM (inactive) in each case.
On to `COc1cccc2c1C(=O)c1c(O)c3c(c(O)c1C2=O)C[C@@](O)(C(=O)CO)CC3OC1CC(N(C)CCOCC(OC(C)=O)OC(C)=O)C(O)C(C)O1` (some centres undefined), for which the GI50 with KM-20L2, with M19-MEL, with DLD-1, with XF498, in the experiment on DMS-114 and in the experiment on HOP-18 was > 0.01 µM (active) throughout.
With `CCN(CC)CCNc1ccc2nc(C)n3c4ccc(OC)cc4c(=O)c1c23`, the GI50 with M19-MEL is 6.59 µM (inactive); in the experiment on DLD-1, 0.463 µM (active); with DMS-273 it was 0.695 µM (active); with DMS-114, 2.58 µM (inactive).
For `CC(O)(c1ccc(OCCC[N+](C)(C)C)cc1)C(C)(O)c1ccc(OCCC[N+](C)(C)C)cc1` (centres undefined), the GI50 in the experiment on KM-20L2, in the experiment on SNB-78, in the experiment on DLD-1, in the experiment with DMS-273, in the experiment on DMS-114 and with HOP-18 was > 100 µM (inactive) each time.
Regarding `COc1cc(C2Oc3cc(-c4oc5cc(O)cc(O)c5c(=O)c4O)ccc3OC2CO)ccc1O` (centres undefined) [DEHYDROSILYLBIN], the GI50 with SNB-78 is > 46.6 µM (inactive); with M19-MEL, 14.4 µM (inactive); in the experiment on DLD-1, 14.5 µM (inactive); in the experiment with XF498, 10.8 µM (inactive); with DMS-273 it was 5.85 µM (inactive); in the experiment with DMS-114, 9.86 µM (inactive).
